From paper doi:10.1101/2025.01.15.632643v1 (biorxiv, 2025)
Like-named read-outs stand apart in the source and are kept apart here. One block for each compound: values may come before it.

Assays:
[1] = biological target: T1, His-ZZ-DYRK1A kinase domain (DYRK1A protein) (Homo sapiens, UniProt Q13627); assay: luminescent kinase assay after transient heating; type: biochemical
[2] = biological target: T1, His-ZZ-DYRK1A kinase domain (DYRK1A protein); assay: biochemical; settings: read-out: koff
[3] = biological target: T1, His-ZZ-DYRK1A kinase domain (DYRK1A protein); assay: biochemical; settings: read-out: kon
[4] = biological target: T2, His-ZZ-DYRK1B kinase domain (DYRK1B protein) (Homo sapiens, UniProt Q9Y463); assay: biochemical; settings: read-out: kon
[5] = biological target: T2, His-ZZ-DYRK1B kinase domain (DYRK1B protein); settings: read-out: DYRK1B Transient heating; inhibitor
[6] = biological target: T2, His-ZZ-DYRK1B kinase domain (DYRK1B protein); assay: biochemical; settings: read-out: koff
[7] = biological target: T2, His-ZZ-DYRK1B kinase domain (DYRK1B protein); settings: read-out: DYRK1B –; inhibitor
[8] = biological target: T2, His-ZZ-DYRK1B kinase domain (DYRK1B protein); assay: luminescent kinase assay after transient heating; type: biochemical; settings: […] °C […] sec heating with compound, then ATP […], DYRKtide […], pH […]
[9] = biological target: T1, His-ZZ-DYRK1A kinase domain (DYRK1A protein); settings: read-out: DYRK1A –; without transient heating; inhibitor
[10] = biological target: T1, His-ZZ-DYRK1A kinase domain (DYRK1A protein); settings: read-out: DYRK1A Transient heating; with transient heating (20 sec); inhibitor
[11] = biological target: T2, His-ZZ-DYRK1B kinase domain (DYRK1B protein); settings: read-out: DYRK1B Transient heating; with transient heating (20 sec); inhibitor
[12] = biological target: T2, His-ZZ-DYRK1B kinase domain (DYRK1B protein); settings: read-out: DYRK1B –; without transient heating; inhibitor

SMILES: COc1ccc(/C=C2\SC(=S)NC2=O)cc1C#C[Si](C)(c1ccccc1)c1ccccc1 [compound 2, dp-FINDY]
IC50 [1]: 2.6 µM | koff [2]: 2.2e-07 s⁻¹ | kon [3]: 0.28 M⁻¹ s⁻¹ | kon [4]: 200 M⁻¹ s⁻¹ | IC50 [5]: 2.5 µM | koff [6]: 0.00012 s⁻¹ | IC50 [7]: > 32 µM

SMILES: COc1ccc(/C=C2\NC(=S)NC2=O)cc1C#C[Si](C)(c1ccccc1)c1ccccc1 [compound 4, RD1408]
IC50 [5]: 14 µM

SMILES: CCOc1cc(/C=C2\SC(=S)NC2=O)ccc1O [compound 5, RD0392]
IC50 [5]: 3.5 µM | IC50 [7]: 3.6 µM

SMILES: COc1ccc(/C=C2\SC(=S)NC2=O)cc1 [compound 13, RD1486]
IC50 [5]: 17 µM | IC50 [7]: 9.7 µM

SMILES: COc1ccc(/C=C2\SC(=S)NC2=O)cc1/C=C/C1CCCCC1 [dscy-dFINDY]
IC50 [9]: > 32 µM | IC50 [10]: 4.1 µM

SMILES: COc1ccc(/C=C2\SC(=S)NC2=O)cc1C#C[Si](c1ccccc1)(c1ccccc1)c1ccccc1 [tp-FINDY]
IC50 [12]: > 32 µM | IC50 [11]: 5.8 µM

SMILES: COc1ccc(/C=C2\SC(=S)NC2=O)cc1C#C[Si]([Si](C)(C)C)([Si](C)(C)C)[Si](C)(C)C [ts-FINDY]
IC50 [12]: > 32 µM | IC50 [11]: 4.6 µM

The next lines start with the values.

IC50 [1]: 38 µM | IC50 [8]: 16 µM | IC50 [7]: 52 µM
SMILES: C#Cc1cc(/C=C2\SC(=S)NC2=O)ccc1OC [compound 11, RD0448]

IC50 [5]: 23 µM | IC50 [7]: 23 µM
SMILES: C#Cc1cc(/C=C2\SC(=S)NC2=O)ccc1O [compound 12, RD0562]

IC50 [9]: > 32 µM | IC50 [10]: 4.9 µM
SMILES: COc1ccc(/C=C2\SC(=S)NC2=O)cc1/C=C/[Si](C)(C)C [dFINDY]

IC50 [11]: 7.4 µM | IC50 [9]: > 32 µM | IC50 [10]: > 32 µM
SMILES: COc1ccc(/C=C2\SC(=S)NC2=O)cc1/C=C/C(C)(C)C [dstb-dFINDY]
